In patent US9301526B2, “Compounds with nematicidal activity” (BAYER INTELLECTUAL PROPERTY GMBH, priority 2011, dated 2016):

Columns and labels:
Assay type in all cases: in vivo
Meloidogyne incognita = Meloidogyne incognita test (gall formation on salad seedlings in sand); settings: application rate 20 ppm; after 14 days; 100% = no galls, 0% = galls equal to untreated control
Experimental: Meloidogyne Incognita—Test
Solvent: 125.0 parts by weight of acetone
To produce a suitable preparation of active compound, 1 part by weight of active compound is mixed with the stated amount of solvent, and the concentrate is diluted with water to the desired concentration. Vessels are filled with sand, a solution of the active ingredient, a suspension containing eggs and larvae of Meloidogyne incognita and salad seeds. The salad seeds germinate and the seedlings grow. Galls develop in the roots.
After 14 days the nematicidal activity is determined on the basis of the percentage of gall formation. 100% means that no galls were found; 0% means that the number of galls found on the roots of the treated plants was equal to that in untreated control plants.

[1] = test system: Haemonchus contortus larvae; experiment: Haemonchus contortus test (HAEMCO), larval mortality; settings: after 5 days, 100% = all larvae killed
Experimental: Haemonchus contortus—Test (HAEMCO)
(§1) Solvent: dimethyl sulfoxide
(§2) To produce a suitable preparation of active compound, 10 mg of active compound are dissolved in 0.5 ml solvent, and the concentrate is diluted with “Ringer's solution” to the desired concentration.
Approximately 40 Haemonchus contortus larvae are transferred into a test tube containing compound solution. After 5 days percentage of larval mortality are recorded. 100% efficacy means all larvae are killed, 0% efficacy means no larvae are killed.

Cooperia curticei larvae = experiment: Cooperia curticei test (COOPCU), larval mortality; settings: application rate 100 ppm; after 5 days; 100% = all larvae killed
Experimental: Cooperia Curticei-Test (COOPCU)
as §1, §2
Approximately 40 Cooperia curticei larvae are transferred into a test tube containing compound solution. After 5 days percentage of larval mortality are recorded. 100% efficacy means all larvae are killed; 0% efficacy means no larvae are killed.

SMILES | nematicidal activity on the basis of the percentage of gall formation (Meloidogyne incognita) | other results
CC(NC(=O)c1ccccc1C(F)(F)F)C(CC1CC1)c1ncc(C(F)(F)F)cc1Cl (mixture of isomers) [Ia-143] | 100% | –
CC(Cc1ncc(C(F)(F)F)cc1Cl)NC(=O)c1ccccc1C(F)(F)F (single isomer, unassigned) [Ia-122] | 100% | –
COC(=O)C(CNC(=O)c1ccccc1C(F)(F)F)(C(=O)OC)c1ncc(C(F)(F)F)cc1Cl [Ia-1] | – | activity (percentage of larval mortality) ([1]; application rate 100 ppm): 90%
CC(Cc1ncc(Cl)cc1Cl)NC(=O)c1ccccc1C(F)(F)F (centres unmarked) [Ia-3] | 100% | –
COC(=O)C(CNC(=O)c1ccccc1C(F)(F)F)c1ncc(C(F)(F)F)cc1Cl (centres unmarked) [Ia-5] | – | activity (percentage of larval mortality) ([1]; application rate 100 ppm): 80%
CCOC(=O)C(CNC(=O)c1ccccc1C(F)(F)F)(C(=O)OC)c1ncc(C(F)(F)F)cc1Cl (centres unmarked) [Ia-6] | – | activity (percentage of larval mortality) ([1]; application rate 100 ppm): 80%
CC(Cc1ncc(C(F)(F)F)cc1Cl)NC(=O)c1ccccc1C(F)(F)F (centres unmarked) [Ia-43] | 100% | –
CC(CNC(=O)c1ccccc1C(F)(F)F)c1ccc(C(F)(F)F)cn1 (centres unmarked) [Ia-46] | 100% | –
CC(CNC(=O)c1ccccc1I)c1ccc(C(F)(F)F)cn1 (centres unmarked) [Ia-47] | 100% | –
O=C(NCC1(c2ccc(Cl)cn2)CC1)c1ccccc1C(F)(F)F [Ia-48] | – | activity (percentage of larval mortality) ([1]; application rate 100 ppm): 80%
CC(CNC(=O)c1ccccc1I)c1ccc(C(F)(F)F)c(Cl)n1 (centres unmarked) [Ia-50] | 100% | –
Cc1c(F)cccc1C(=O)NCC(C)c1ncc(C(F)(F)F)cc1Cl (centres unmarked) [Ia-70] | 100% | –
CC(CNC(=O)c1ccccc1C(F)(F)F)c1ncc(C(F)(F)F)cc1Cl (centres unmarked) [Ia-92] | 100% | –
CC(C)(CNC(=O)c1ccccc1C(F)(F)F)c1ncc(C(F)(F)F)cc1Cl [Ia-93, N-{2-[3-chloro-5-(trifluoromethyl)pyridin-2-yl]-2-methylpropyl}-2-(trifluoromethyl)benzamide] | 100% | –
CCC(Cc1ncc(C(F)(F)F)cc1Cl)NC(=O)c1ccccc1C(F)(F)F (centres unmarked) [Ia-110] | 100% | –
CC(CNC(=O)c1ccccc1C(F)(F)F)c1ncc(Cl)cc1Cl (centres unmarked) [Ia-113] | 100% | –
CC(CNC(=O)c1ccccc1I)c1ncc(Cl)cc1Cl (centres unmarked) [Ia-114] | 100% | –
CCC(CNC(=O)c1ccccc1C(F)(F)F)c1ccc(Cl)cn1 (centres unmarked) [Ia-131] | 100% | –
CC(Cc1ncc(C(F)(F)F)cc1Cl)NC(=O)c1ccccc1I (centres unmarked) [Ia-140] | 100% | –
CC(Cc1ncc(C(F)(F)F)cc1Cl)NC(=O)c1ccccc1Cl (centres unmarked) [Ia-141] | 100% | –
O=C(NCC(F)(F)c1ncc(Cl)cc1Cl)c1ccccc1I [Ia-142] | 100% | –
O=C(NCC(F)(F)c1ncc(C(F)(F)F)cc1Cl)c1ccccc1C(F)(F)F [Ia-148] | 100% | –
CC(Cc1ncc(C(F)(F)F)cc1Cl)NC(=O)c1ccccc1Br (centres unmarked) [Ia-153] | 100% | –
CC(Cc1ncc(C(F)(F)F)cc1Cl)NC(=O)c1ccccc1C(F)F (centres unmarked) [Ia-154] | 100% | –

SMILES | nematicidal activity on the basis of the percentage of gall formation (Meloidogyne incognita) | other results
CC(Cc1ncc(C(F)(F)F)cc1Cl)NC(=O)c1c(F)cccc1F (centres unmarked) [Ia-170] | 90% | –
CC(Cc1ncc(C(F)(F)F)cc1Cl)NC(=O)c1ccccc1F (centres unmarked) [Ia-172] | 90% | –
CC(Cc1ncc(C(F)(F)F)cc1Cl)NC(=O)c1c(F)cccc1C(F)(F)F (centres unmarked) [Ia-174] | 90% | –
CC(CNC(=O)c1ccccc1I)c1ncc(C(F)(F)F)cc1Cl (centres unmarked) [Ia-177] | 100% | –
CC(Cc1ncc(C(F)(F)F)cc1Cl)NC(=O)c1ccccc1[N+](=O)[O-] (centres unmarked) [Ia-196] | 90% | –
CN(C)C(CNC(=O)c1ccccc1Cl)c1ncc(C(F)(F)F)cc1Cl (centres unmarked) [Ia-211] | 90% | –
CN(C)C(CNC(=O)c1ccccc1C(F)(F)F)c1ncc(C(F)(F)F)cc1Cl (centres unmarked) [Ia-212] | 90% | –
O=C(NCCc1cnc(C(F)(F)F)cc1Cl)c1ccccc1C(F)(F)F [Ib-47] | 90% | activity (percentage of larval mortality) ([1]; application rate 100 ppm): 100%
O=C(NCCc1cnc(C(F)(F)F)cc1Cl)c1ccccc1F [Ib-48] | – | activity (percentage of larval mortality) (Cooperia curticei larvae): 90%; activity (percentage of larval mortality) ([1]; application rate 100 ppm): 90%
O=C(NCCc1cnc(C(F)(F)F)cc1Cl)c1ccccc1Cl [Ib-49] | – | activity (percentage of larval mortality) ([1]; application rate 100 ppm): 100%
O=C(NCCc1cnc(C(F)(F)F)cc1Cl)c1ccccc1C(F)F [Ib-50] | 70% | activity (percentage of larval mortality) ([1]; application rate 100 ppm): 100%
O=C(NCCc1cnc(C(F)(F)F)cc1Cl)c1c(F)cccc1F [Ib-51] | 70% | activity (percentage of larval mortality) ([1]; application rate 100 ppm): 90%
O=C(NCCc1cnc(C(F)(F)F)cc1Cl)c1ccccc1Br [Ib-52] | – | activity (percentage of larval mortality) ([1]; application rate 20 ppm): 80%
O=C(NCCc1cnc(C(F)(F)F)cc1Cl)c1ccccc1[N+](=O)[O-] [Ib-58] | 90% | –
O=C(NCCc1c(F)c(F)nc(F)c1F)c1ccccc1C(F)(F)F [Ic-1] | 100% | activity (percentage of larval mortality) ([1]; application rate 100 ppm): 100%
O=C(NCCc1c(F)c(F)nc(F)c1F)c1ccccc1I [Ic-2] | 100% | –
Cc1cc(CCNC(=O)c2ccccc2C(F)(F)F)c(Cl)cn1 [Ic-5] | 90% | –
O=C(NCCc1cc(F)ncc1F)c1ccccc1C(F)(F)F [Ic-7] | 100% | activity (percentage of larval mortality) ([1]; application rate 100 ppm): 100%
O=C(NCCc1c(Cl)cncc1Cl)c1ccc(F)c(F)c1 [Ic-26] | – | activity (percentage of larval mortality) (Cooperia curticei larvae): 80%
CCc1ccc(C(=O)NCCc2ccnc(OC)c2)cc1 [Ic-58] | – | activity (percentage of larval mortality) (Cooperia curticei larvae): 80%
COc1cc(CCNC(=O)c2ccccc2OC)ccn1 [Ic-59] | – | activity (percentage of larval mortality) (Cooperia curticei larvae): 90%
COc1cc(CCNC(=O)c2ccc(C(F)(F)F)cc2)ccn1 [Ic-60] | – | activity (percentage of larval mortality) (Cooperia curticei larvae): 90%
COc1cc(CCNC(=O)c2cccc(Cl)c2)ccn1 [Ic-75] | – | activity (percentage of larval mortality) (Cooperia curticei larvae): 90%
